Laboratory results from patent US4719200A, “Amino acid derivatives and antihypertensive drugs containing the same” (Ajinomoto Co., Inc., priority 1984, dated 1988).
Square brackets hold non-standard residues; d marks the D form. Peptide text beside a SMILES is read from it. * marks the point of attachment. pGlu = O=C1CC[C@@H](C(=O)O)N1; Cbz = O=C(OCc1ccccc1)*; PhAc = O=C(Cc1ccccc1)*; Bz = O=C(c1ccccc1)*

Test system: spontaneously hypertensive rates (SHR rats)
Assay: Measurement of change in blood pressure (systolic, indirect, conscious rats) after one oral dose
Type: in vivo, rat
Conditions: for Systolic Blood Pressure, Lowest Value: after administration; for Δ Blood Pressure (systolic): lowest value minus value before administration
Description: The antihypertensive activities of the amino acid derivatives as prepared above were determined.
As subject animals, there were used 5 spontaneously hypertensive rates (SHR rats) which had been sufficiently trained and confirmed to be hypertensive (mode, the body weight of 400 g) per a sample.
As an instrument for measuring the blood pressure there was used Programmed Electro-Sphygmomanometer PE-300 (Narco Co., U.S.A.), and the blood pressure was indirectly measured on conscious rats.
An aqueous solution of a sample (0.05 m mole/kg) was once force-fed into the stomach by means of a […] probe. As a control, the water as deionized was fed to the same animals as above.

[1] = second table (Examples 25-43), before administration
[2] = SHR rats, single force-feeding into the stomach, 0.05 m mole/kg
[3] = SHR rats, 5 per sample, before single force-feeding into the stomach of 0.05 m mole/kg aqueous solution

In the case of `CCOC(=O)N[C@H](C(=O)N1CCC[C@H]1C(=O)N1CCC[C@H]1C(=O)O)[C@@H](C)CC.[Na]` [Example 30, N--ethoxycarbonyl-L-isoleucyl-L-prolyl-L-proline sodium salt], the “Hrs. After Admin. (of lowest systolic blood pressure value)” value (second table (Examples 25-43)) is reported as 4 h, the “Systolic Blood Pressure, Lowest Value” (second table (Examples 25-43)) is reported as 208 and the “Systolic Blood Pressure, Value Before Administration” value [1] is reported as 224. The “Δ Blood Pressure (systolic)” value (second table (Examples 25-43)) was -16.
In the case of `C[C@H](NC(=O)Cc1ccccc1)C(=O)N1CCC[C@H]1C(=O)N1CCC[C@H]1C(=O)O` [Example 14, N-phenylacetyl-L-alanyl-L-prolyl-L-proline] (PhAc-Ala-Pro-Pro-OH), the “Systolic Blood Pressure, Lowest value after administration” value [2] is reported as 175 mm Hg and the “Δ Blood Pressure (systolic)” value [2] is reported as -24 mm Hg.
`CCS(=O)(=O)N[C@@H](CO)C(=O)N1CCC[C@H]1C(=O)N1CCC[C@H]1C(=O)[O-].[Na+]` [Example 42, N--ethane sulfonyl-L-seryl-L-prolyl-L-proline sodium salt] was tested, and the “Hrs. After Admin. (of lowest systolic blood pressure value)” value (second table (Examples 25-43)) was 24 h, the “Systolic Blood Pressure, Lowest Value” (second table (Examples 25-43)) was 200 and the “Systolic Blood Pressure, Value Before Administration” value [1] was 220. The “Δ Blood Pressure (systolic)” value (second table (Examples 25-43)) was -20.
For `C[C@H](NC(=O)c1cccs1)C(=O)N1CCC[C@H]1C(=O)N1CCC[C@H]1C(=O)O` [Example 6, N-(2-thenoyl)-L-alanyl-L-prolyl-L-proline], the “Systolic Blood Pressure, Lowest value after administration” value [2] was 182 mm Hg and the “Δ Blood Pressure (systolic)” value [2] was -20 mm Hg.
For `CCOC(=O)N[C@@H](CCCNC(=N)N)C(=O)N1CCC[C@H]1C(=O)N1CCC[C@H]1C(=O)O` [Example 34, N--ethoxycarbonyl-L-arginyl-L-prolyl-L-proline], the “Hrs. After Admin. (of lowest systolic blood pressure value)” value (second table (Examples 25-43)) was 4 h, the “Systolic Blood Pressure, Lowest Value” (second table (Examples 25-43)) was 192 and the “Systolic Blood Pressure, Value Before Administration” value [1] was 203. For the same compound, the “Δ Blood Pressure (systolic)” value (second table (Examples 25-43)) was -11.
In the case of `CC[C@H](C)[C@H](NS(=O)(=O)CC)C(=O)N1CCC[C@H]1C(=O)N1CCC[C@H]1C(=O)O.[Na]` [Example 37, N--ethanesulphonyl-L-isoleucyl-L-prolyl-proline sodium salt], the “Hrs. After Admin. (of lowest systolic blood pressure value)” value (second table (Examples 25-43)) is reported as 8 h, the “Systolic Blood Pressure, Lowest Value” (second table (Examples 25-43)) is reported as 194 and the “Systolic Blood Pressure, Value Before Administration” value [1] is reported as 218. The “Δ Blood Pressure (systolic)” value (second table (Examples 25-43)) was -22.
In the case of `CC[C@H](C)[C@H](NC(=O)c1ccccc1)C(=O)N1CCC[C@H]1C(=O)N1CCC[C@H]1C(=O)O` [Example 25, N--benzoyl-L-isoleucyl-L-prolyl-L-proline] (Bz-Ile-Pro-Pro-OH), the “Hrs. After Admin. (of lowest systolic blood pressure value)” value (second table (Examples 25-43)) is reported as 8 h, the “Systolic Blood Pressure, Lowest Value” (second table (Examples 25-43)) is reported as 201 and the “Systolic Blood Pressure, Value Before Administration” value [1] is reported as 229. For the same compound, the “Δ Blood Pressure (systolic)” value (second table (Examples 25-43)) was -28.
With `C[C@H](NC(=O)OCc1ccccc1)C(=O)N1CCC[C@H]1C(=O)N1CCC[C@H]1C(=O)O.NC(N)=NCCC[C@H](N)C(=O)O` [Example 15, N-benzyloxycarbonyl-L-alanly-L-prolyl-L-proline L-arginine salt] (Cbz-Ala-Pro-Pro-OH) the “Systolic Blood Pressure, Value Before Administration” value [3] was 205 mm Hg, the “Hours after administration (of lowest systolic blood pressure value)” value [2] was 4 h and the “Systolic Blood Pressure, Lowest value after administration” value [2] was 172 mm Hg. The “Δ Blood Pressure (systolic)” value [2] was -33 mm Hg.
`CCOC(=O)N[C@@H](CCC(=O)O)C(=O)N1CCC[C@H]1C(=O)O` [Example 33, N--ethoxycarbonyl-L-glutamyl-L-proline] was tested, and the “Hrs. After Admin. (of lowest systolic blood pressure value)” value (second table (Examples 25-43)) was 8 h, the “Systolic Blood Pressure, Lowest Value” (second table (Examples 25-43)) was 202 and the “Systolic Blood Pressure, Value Before Administration” value [1] was 220. The “Δ Blood Pressure (systolic)” value (second table (Examples 25-43)) was -18.
`C[C@H](NC(=O)[C@@H]1CCC(=O)N1)C(=O)N1CCC[C@H]1C(=O)N1CCC[C@H]1C(=O)O` [Example 21, L-pyroglutamyl-L-alanyl-L-prolyl-L-proline] ([pGlu]APP-OH) was tested, and the “Systolic Blood Pressure, Lowest value after administration” value [2] was 190 mm Hg and the “Δ Blood Pressure (systolic)” value [2] was -29 mm Hg.
In the case of “N-(3-phenylpropionyl)-L-alanyl-L-prolyl-L-proline L-arginine salt [Example 2]”, the “Systolic Blood Pressure, Value Before Administration” value [3] is reported as 190 mm Hg, the “Hours after administration (of lowest systolic blood pressure value)” value [2] is reported as 24 h and the “Systolic Blood Pressure, Lowest value after administration” value [2] is reported as 154 mm Hg. The “Δ Blood Pressure (systolic)” value [2] was -36 mm Hg.
`C[C@H](NC(=O)c1ccco1)C(=O)N1CCC[C@H]1C(=O)N1CCC[C@H]1C(=O)O` [Example 7, N-(2-furoyl)-L-alanyl-L-prolyl-L-proline] was tested, and the “Systolic Blood Pressure, Lowest value after administration” value [2] was 177 mm Hg and the “Δ Blood Pressure (systolic)” value [2] was -28 mm Hg.
With `O=C(NCC(=O)N1CCC[C@H]1C(=O)N1CCC[C@H]1C(=O)O)c1ccccc1` [Example 27, N--benzoyl-glycyl-L-prolyl-L-proline] (Bz-Gly-Pro-Pro-OH) the “Hrs. After Admin. (of lowest systolic blood pressure value)” value (second table (Examples 25-43)) was 8 h, the “Systolic Blood Pressure, Lowest Value” (second table (Examples 25-43)) was 209 and the “Systolic Blood Pressure, Value Before Administration” value [1] was 232. The “Δ Blood Pressure (systolic)” value (second table (Examples 25-43)) was -23.
